Assays:
Type in all cases: functional
[1] = system: KM12; assay: Growth inhibition of human KM12 cells at 10 uM after 48 hrs by sulforhodamine B assay; conditions: KM12, 48 h, values are per cent of control
[2] = Growth inhibition of human BT549 cells at 10 uM after 48 hrs by sulforhodamine B assay; conditions: BT-549, 48 h, values are per cent of control
[3] = system: M14; assay: Growth inhibition of human M14 cells at 10 uM after 48 hrs by sulforhodamine B assay; conditions: M14, 48 h, values are per cent of control
[4] = Growth inhibition of human LOXIMVI cells at 10 uM after 48 hrs by sulforhodamine B assay; conditions: LOX IMVI, values are per cent of control
[5] = system: K562; assay: Growth inhibition of human K562 cells at 10 uM after 48 hrs by sulforhodamine B assay; conditions: K562, 48 h, values are per cent of control
[6] = Growth inhibition of human Hs 578T cells at 10 uM after 48 hrs by sulforhodamine B assay; conditions: values are per cent of control
[7] = Growth inhibition of human SNB75 cells at 10 uM after 48 hrs by sulforhodamine B assay; conditions: SNB-75, 48 h, values are per cent of control
[8] = Growth inhibition of human IGROV1 cells at 10 uM after 48 hrs by sulforhodamine B assay; conditions: IGROV-1, 48 h, values are per cent of control
[9] = Growth inhibition of human OVCAR5 cells at 10 uM after 48 hrs by sulforhodamine B assay; conditions: OVCAR-5, 48 h, values are per cent of control
[10] = system: T47D; assay: Growth inhibition of human T47D cells at 10 uM after 48 hrs by sulforhodamine B assay; conditions: values are per cent of control
[11] = system: U-251; assay: Growth inhibition of human U251 cells at 10 uM after 48 hrs by sulforhodamine B assay; conditions: U-251, 48 h, values are per cent of control
[12] = system: NCI-H226; assay: Growth inhibition of human NCI-H226 cells at 10 uM after 48 hrs by sulforhodamine B assay; conditions: NCI-H226, 48 h, values are per cent of control
[13] = Growth inhibition of human COLO205 cells at 10 uM after 48 hrs by sulforhodamine B assay; conditions: COLO 205, 48 h, values are per cent of control
[14] = system: SK-MEL-2; assay: Growth inhibition of human SK-MEL-2 cells at 10 uM after 48 hrs by sulforhodamine B assay; conditions: SK-MEL-2, 48 h, values are per cent of control
[15] = Growth inhibition of human SW620 cells at 10 uM after 48 hrs by sulforhodamine B assay; conditions: SW-620, 48 h, values are per cent of control
[16] = Growth inhibition of human HCC2998 cells at 10 uM after 48 hrs by sulforhodamine B assay; conditions: HCC 2998, 48 h, values are per cent of control
[17] = Growth inhibition of human HCT116 cells at 10 uM after 48 hrs by sulforhodamine B assay; conditions: HCT-116, 48 h, values are per cent of control
[18] = Growth inhibition of human HOP62 cells at 10 uM after 48 hrs by sulforhodamine B assay; conditions: HOP-62, 48 h, values are per cent of control
[19] = system: NCI-H460; assay: Growth inhibition of human NCI-H460 cells at 10 uM after 48 hrs by sulforhodamine B assay; conditions: NCI-H460, 48 h, values are per cent of control
[20] = Growth inhibition of human SF539 cells at 10 uM after 48 hrs by sulforhodamine B assay; conditions: SF-539, 48 h, values are per cent of control
[21] = Growth inhibition of human UACC62 cells at 10 uM after 48 hrs by sulforhodamine B assay; conditions: UACC-62, 48 h, values are per cent of control
[22] = Growth inhibition of human DU145 cells at 10 uM after 48 hrs by sulforhodamine B assay; conditions: DU-145, 48 h, values are per cent of control
[23] = system: SK-MEL-28; assay: Growth inhibition of human SK-MEL-28 cells at 10 uM after 48 hrs by sulforhodamine B assay; conditions: SK-MEL-28, 48 h, values are per cent of control
[24] = system: NCI-H23; assay: Growth inhibition of human NCI-H23 cells at 10 uM after 48 hrs by sulforhodamine B assay; conditions: NCI-H23, 48 h, values are per cent of control
[25] = system: A549; assay: Growth inhibition of human A549/ATCC cells at 10 uM after 48 hrs by sulforhodamine B assay; conditions: A549, 48 h, values are per cent of control
[26] = system: NCI-H322M; assay: Growth inhibition of human NCI-H322M cells at 10 uM after 48 hrs by sulforhodamine B assay; conditions: values are per cent of control
[27] = Growth inhibition of human SNB19 cells at 10 uM after 48 hrs by sulforhodamine B assay; conditions: SNB-19, 48 h, values are per cent of control
[28] = Growth inhibition of human OVCAR4 cells at 10 uM after 48 hrs by sulforhodamine B assay; conditions: OVCAR-4, 48 h, values are per cent of control
[29] = Growth inhibition of human Caki1 cells at 10 uM after 48 hrs by sulforhodamine B assay; conditions: CAKI-1, 48 h, values are per cent of control
[30] = system: A498; assay: Growth inhibition of human A498 cells at 10 uM after 48 hrs by sulforhodamine B assay; conditions: A498, 48 h, values are per cent of control
[31] = Growth inhibition of human SF295 cells at 10 uM after 48 hrs by sulforhodamine B assay; conditions: SF-295, 48 h, values are per cent of control
[32] = system: MDA-MB-468; assay: Growth inhibition of human MDA-MB-468 cells at 10 uM after 48 hrs by sulforhodamine B assay; conditions: MDA-MB-468, 48 h, values are per cent of control
[33] = Growth inhibition of human SF268 cells at 10 uM after 48 hrs by sulforhodamine B assay; conditions: SF-268, 48 h, values are per cent of control
[34] = system: HT-29; assay: Growth inhibition of human HT-29 cells at 10 uM after 48 hrs by sulforhodamine B assay; conditions: HT-29, 48 h, values are per cent of control
[35] = system: NCI-H522; assay: Growth inhibition of human NCI-H522 cells at 10 uM after 48 hrs by sulforhodamine B assay; conditions: NCI-H522, 48 h, values are per cent of control
[36] = Growth inhibition of human TK10 cells at 10 uM after 48 hrs by sulforhodamine B assay; conditions: TK-10, 48 h, values are per cent of control
[37] = system: MDA-MB-231; assay: Growth inhibition of human MDA-MB-231 cells at 10 uM after 48 hrs by sulforhodamine B assay; conditions: MDA-MB-231, 48 h, values are per cent of control
[38] = Growth inhibition of human UO31 cells at 10 uM after 48 hrs by sulforhodamine B assay; conditions: UO-31, 48 h, values are per cent of control
[39] = system: MDA-MB-435; assay: Growth inhibition of human MDA-MB-435 cells at 10 uM after 48 hrs by sulforhodamine B assay; conditions: MDA-MB-435, 48 h, values are per cent of control
[40] = system: SN12C; assay: Growth inhibition of human SN12C cells at 10 uM after 48 hrs by sulforhodamine B assay; conditions: values are per cent of control

| Structure (SMILES) | growth, % of control at 10 µM [1] | growth, % of control at 10 µM [2] | growth, % of control at 10 µM [3] | growth, % of control at 10 µM [4] | growth, % of control at 10 µM [5] | growth, % of control at 10 µM [6] | growth, % of control at 10 µM [7] | growth, % of control at 10 µM [8] | growth, % of control at 10 µM [9] | growth, % of control at 10 µM [10] | growth, % of control at 10 µM [11] | growth, % of control at 10 µM [12] | growth, % of control at 10 µM [13] | growth, % of control at 10 µM [14] | growth, % of control at 10 µM [15] | growth, % of control at 10 µM [16] | growth, % of control at 10 µM [17] | growth, % of control at 10 µM [18] | growth, % of control at 10 µM [19] | growth, % of control at 10 µM [20] | other results |
| --- | --- | --- | --- | --- | --- | --- | --- | --- | --- | --- | --- | --- | --- | --- | --- | --- | --- | --- | --- | --- | --- |
| COc1ccc(/C(C#N)=C/c2ccc3c(c2)OCCO3)cc1OC | 30.6% | 19.2% | 19.7% | 44.9% | 11.6% | 16.3% | 2.2% | 49.5% | 73.5% | 31% | 19.9% | 71.1% | -1.3% | 19.4% | 15.5% | 60.1% | 22.3% | 36.9% | 12.4% | 5.6% | growth, % of control at 10 µM [21]: 43.7%; growth, % of control at 10 µM [22]: 20.7%; growth, % of control at 10 µM [23]: 61.7%; growth, % of control at 10 µM [24]: 46.8%; growth, % of control at 10 µM [25]: 40%; growth, % of control at 10 µM [26]: 34.5%; growth, % of control at 10 µM [27]: 53.2%; growth, % of control at 10 µM [28]: 69.3%; growth, % of control at 10 µM [29]: 17.6%; growth, % of control at 10 µM [30]: -4.1%; growth, % of control at 10 µM [31]: -14%; growth, % of control at 10 µM [32]: -11.4%; growth, % of control at 10 µM [33]: 53.2%; growth, % of control at 10 µM [34]: 6.6%; growth, % of control at 10 µM [35]: -30.1%; growth, % of control at 10 µM [36]: 45.7%; growth, % of control at 10 µM [37]: 63%; growth, % of control at 10 µM [38]: 41.8%; growth, % of control at 10 µM [39]: -17.6%; growth, % of control at 10 µM [40]: 56.7% |
| COc1ccc(/C=C(\C#N)c2ccc3c(c2)OCO3)cn1 | 63.9% | 81% | 91.1% | 95.6% | 64.2% | 101% | 57% | 90.6% | 95% | 81% | 84.5% | 93.3% | 97.6% | 93.2% | 86.1% | 93.2% | 82.6% | 88.1% | 95.2% | 83.1% | growth, % of control at 10 µM [21]: 79.9%; growth, % of control at 10 µM [22]: 97.4%; growth, % of control at 10 µM [23]: 95.1%; growth, % of control at 10 µM [24]: 93.7%; growth, % of control at 10 µM [25]: 77.4%; growth, % of control at 10 µM [26]: 98.3%; growth, % of control at 10 µM [27]: 96.4%; growth, % of control at 10 µM [28]: 81.6%; growth, % of control at 10 µM [29]: 75.3%; growth, % of control at 10 µM [30]: 70.8%; growth, % of control at 10 µM [31]: 89.3%; growth, % of control at 10 µM [32]: 60.8%; growth, % of control at 10 µM [33]: 91%; growth, % of control at 10 µM [34]: 63.8%; growth, % of control at 10 µM [35]: 79.8%; growth, % of control at 10 µM [36]: 80.4%; growth, % of control at 10 µM [37]: 75.6%; growth, % of control at 10 µM [38]: 82.3%; growth, % of control at 10 µM [39]: 37.2%; growth, % of control at 10 µM [40]: 92.6% |
